Measurements: PMC6384901 (Molecules, 2019)
Numbered stars: 1 amine (or outer) side, 2 acyl side, 3 side chain; on linkers, the order of the positions; unused ones are H or OH. Bridge positions count the residues as written; N and C are the ends. Peptide text beside a SMILES is read from it. * marks the point of attachment. Suberoyl(Gly)2 = O=C(CCCCCCC(=O)NCC(=O)[*:2])NCC(=O)[*:1]; Suberoyl = O=C(CCCCCCC(=O)[*:2])[*:1]; Myristoyl = CCCCCCCCCCCCCC(=O)*; Suc = O=C(CCC(=O)[*:2])[*:1]

Assays:
[1] = target: T1, human recombinant His6-SIRT1 or GST-SIRT1 (Homo sapiens, UniProt Q96EB6); assay: HPLC-based sirtuin deacylation activity assay, SIRT1; format: biochemical; conditions: substrate activity with SIRT1; 50 mM Hepes pH 8.0, 0.5 mM β-NAD+, SIRT1 243 nM, 37 °C, 5 min, HPLC 214 nm, Michaelis-Menten fit
T1 construct: His6 or GST (two alternative purchased preparations, not both on one protein); purchased Sigma-Aldrich China (His6-SIRT1); Cayman Chemical (GST-SIRT1)
T1 sequence (Q96EB6 1-747): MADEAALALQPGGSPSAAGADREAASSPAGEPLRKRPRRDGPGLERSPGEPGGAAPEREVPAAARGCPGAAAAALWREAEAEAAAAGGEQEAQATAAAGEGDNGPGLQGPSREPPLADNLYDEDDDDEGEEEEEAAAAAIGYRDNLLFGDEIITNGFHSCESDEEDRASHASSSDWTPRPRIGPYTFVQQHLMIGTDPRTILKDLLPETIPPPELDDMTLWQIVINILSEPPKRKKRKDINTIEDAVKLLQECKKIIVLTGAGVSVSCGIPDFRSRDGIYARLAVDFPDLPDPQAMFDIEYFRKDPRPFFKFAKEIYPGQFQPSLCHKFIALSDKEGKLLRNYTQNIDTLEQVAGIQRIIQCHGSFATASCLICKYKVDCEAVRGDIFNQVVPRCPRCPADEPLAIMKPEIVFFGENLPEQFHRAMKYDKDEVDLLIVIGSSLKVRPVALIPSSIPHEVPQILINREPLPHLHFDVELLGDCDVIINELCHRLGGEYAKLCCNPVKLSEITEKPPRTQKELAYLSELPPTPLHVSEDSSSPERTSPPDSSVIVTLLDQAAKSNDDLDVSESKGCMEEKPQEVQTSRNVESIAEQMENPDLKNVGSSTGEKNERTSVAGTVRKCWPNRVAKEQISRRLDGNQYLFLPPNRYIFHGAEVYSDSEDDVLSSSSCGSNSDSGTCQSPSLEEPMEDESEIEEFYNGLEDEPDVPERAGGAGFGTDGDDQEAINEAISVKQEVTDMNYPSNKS
Experimental: The steady-state kinetic parameters (kcat and KM) for the SIRT1/2/3 substrate activities of the purified 5–8 were determined with a HPLC-based sirtuin deacylation activity assay and are recorded in Table 2 and Table 3. As judged by kcat/KM ratios, cyclic peptides 5–8 were all found to be excellent SIRT1 substrates, actually 5, 7, and 8 are all better SIRT1 substrates than the linear hexapeptide-based SIRT1 substrate 3 (depicted in Figure 2) reported in the current literature (kcat/KM = 800 M^−1 s^−1). Cyclic peptides 5–8 were also all found to be better SIRT3 substrates than the linear hexapeptide-based SIRT3 substrate 3 reported in the current literature (kcat/KM = 990 M^−1·s^−1).
The following materials were obtained from commercial sources for the in vitro sirtuin deacylation activity assay and the pronase digestion assay, and were used as received. Sigma-Aldrich China: the active human recombinant His6-SIRT1, Trizma, Hepes, β-NAD^+, a 1.0 M solution of MgCl2 (molecular-biology grade), the pronase from Streptomyces griseus; Cayman Chemical (Ann Arbor, MI, USA): the active human recombinant GST-SIRT1, the active human recombinant His6-SIRT2, the active human recombinant His6-SIRT3; TCI Shanghai: DL-dithiothreitol (DTT); Alfa Aesar China: NaCl, KCl.
A sirtuin deacylation assay solution contained the following: 50 mM Hepes (pH 8.0), 137 mM NaCl, 2.7 mM KCl, 1 mM MgCl2, 1 mM DTT, β-NAD^+ (~5.6 × KM: 0.5 mM for the SIRT1 and SIRT2 assays, 3.5 mM for the SIRT3 assay), one test compound (5, 6, 7, or 8) with varied concentrations including 0, and a sirtuin (His6-SIRT1 or GST-SIRT1, 243 nM; His6-SIRT2, 297 nM; or His6-SIRT3, 739 nM). An enzymatic reaction was initiated by the addition of a sirtuin at 37 °C and was incubated at 37 °C for 5 min (for the SIRT1 assay) or 2 min (for the SIRT2 and SIRT3 assays) until quenched with the following stop solution: 100 mM HCl and 0.16 M acetic acid. The quenched assay solutions were directly injected into a C18 column (0.46 × 25 cm, 5 μm), and the column was eluted with a gradient of ddH2O containing 0.05% (v/v) TFA and acetonitrile containing 0.05% (v/v) TFA at 1 mL/min and was monitored at 214 nm. Turnover of the limiting substrate was kept at <10%. Stock solutions of the test compounds were all prepared in ddH2O. The integrated product and substrate HPLC peak areas were then used to determine the initial velocities for the sirtuin-catalyzed deacylation reaction at different concentrations of a test compound (5, 6, 7, or 8). The initial velocity-concentration data were analyzed with KaleidaGraph® (Synergy Software, Reading, PA, USA) and the data were fitted to the Michaelis-Menten equation to obtain the kinetic parameters kcat and KM, as recorded in Table 2 and Table 3.

[2] = tested on: His6-SIRT2, 297 nM; assay: 50 mM Hepes (pH 8.0), 137 mM NaCl, 2.7 mM KCl, 1 mM MgCl2, 1 mM DTT, β-NAD^+ 0.5 mM; conditions: human, 37 °C, up to 2 min
[3] = tested on: His6-SIRT1 or GST-SIRT1, 243 nM; assay: as above; conditions: human, 37 °C, up to 5 min
[4] = tested on: His6-SIRT3, 739 nM; assay: 50 mM Hepes (pH 8.0), 137 mM NaCl, 2.7 mM KCl, 1 mM MgCl2, 1 mM DTT, β-NAD^+ 3.5 mM; conditions: human, 37 °C, up to 2 min
[5] = tested on: pronase; assay: pronase solution in 100 mM Tris HCl (pH 7.3) (8 ng/µL); conditions: Streptomyces griseus, 37 °C, up to 60 min

Row | fragment found [5] | Molecule | KM [1] | kcat [1] | cleaved bond [2] | cleaved bond [3] | cleaved bond [4]
1 | – | CSCC[C@H](NC(=O)[C@@H]1CCCCNC(=O)CNC(=O)CCCCCCC(=O)NCC(=O)NCCCC[C@H](NC(C)=O)C(=O)N[C@@H](CCCCN)C(=O)N[C@@H](CCCCNC(C)=O)C(=O)N1)C(N)=O [Compound 5] (Ac-KKK(Ac)KM-NH2; linker 1-4 via Suberoyl(Gly)2) | 22.2 ± 1.8 µM | 35.6 ± 5.1 10^−3, s^−1 | – | – | –
2 | – | CSCC[C@H](NC(=O)[C@@H]1CCCCNC(=O)CCC(=O)NCCCC[C@H](NC(C)=O)C(=O)N[C@@H](CCCCN)C(=O)N[C@@H](CCCCNC(C)=O)C(=O)N1)C(N)=O [Compound 6] (Ac-KKK(Ac)KM-NH2; linker 1-4 via Suc) | 41.3 ± 1.83 µM | 25.9 ± 2.3 10^−3, s^−1 | – | – | –
3 | – | CCCCCCCCCCCCCC(=O)NCCCC[C@@H]1NC(=O)[C@H](CCCNC(=N)N)NC(=O)[C@@H](NC(C)=O)CCCCNC(=O)CCCCCCC(=O)NCCCC[C@@H](C(=O)N[C@H](C(N)=O)[C@@H](C)O)NC1=O [Compound 7] (Ac-KRK(Myristoyl)KT-NH2; linker 1-4 via Suberoyl) | 2.85 ± 0.13 µM | 5.8 ± 0.1 10^−3, s^−1 | – | – | –
4 | – | CC(=O)NCCCC[C@@H]1NC(=O)[C@H](CCCCN)NC(=O)[C@@H](NC(C)=O)CCCCNC(=O)CNC(=O)CCCCCCC(=O)NCC(=O)NCCCC[C@@H](C(N)=O)NC1=O [Compound 8] (Ac-KKK(Ac)K-NH2; linker 1-4 via Suberoyl(Gly)2) | 42.2 ± 17.5 µM | – | – | – | –
5 | – | CH3CONH-Lys-Arg-(N^ε-myristoyl-Lysine)-Lys-Thr-NH2, side chains of Lys1 and Lys4 bridged by suberoyl (read from the drawn structure) | – | – | SIRT2-catalyzed deacylation of N^ε-myristoyl-lysine | SIRT1-catalyzed deacylation of N^ε-myristoyl-lysine | SIRT3-catalyzed deacylation of N^ε-myristoyl-lysine
6 | 5a | CH3CONH-Lys-Lys-(N^ε-acetyl-Lysine)-Lys-Met-NH2, side chains of Lys1 and Lys4 bridged by Gly-suberoyl-Gly (read from the drawn structure) | – | – | SIRT2-catalyzed deacylation of N^ε-acetyl-lysine | SIRT1-catalyzed deacylation of N^ε-acetyl-lysine | SIRT3-catalyzed deacylation of N^ε-acetyl-lysine
7 | – | CH3CONH-Lys-Lys-(N^ε-acetyl-Lysine)-Lys-Met-NH2, side chains of Lys1 and Lys4 bridged by succinyl (read from the drawn structure) | – | – | SIRT2-catalyzed deacylation of N^ε-acetyl-lysine | SIRT1-catalyzed deacylation of N^ε-acetyl-lysine | SIRT3-catalyzed deacylation of N^ε-acetyl-lysine
8 | – | CH3CONH-Lys-Lys-(N^ε-acetyl-Lysine)-Lys-NH2, side chains of Lys1 and Lys4 bridged by Gly-suberoyl-Gly (read from the drawn structure) | – | – | SIRT2-catalyzed deacylation of N^ε-acetyl-lysine | SIRT1-catalyzed deacylation of N^ε-acetyl-lysine | SIRT3-catalyzed deacylation of N^ε-acetyl-lysine
